Results from patent US10117899B2, “Delivery methods and compositions for nuclease-mediated genome engineering in hematopoietic stem cells” (Sangamo BioSciences, Inc., priority 2013, dated 2018).

Legend:
[1] = system: CD34+ cells; assay: Gene targeting of CD34+ cell subpopulations in culture supplemented with SR1 and/or dmPGE2; assay type: cell-based, human
Protocol: CD34+ cells were either freshly purified from human cord blood after obtaining informed consent and upon approval by the San Raffaele Hospital Bioethical Committee, or purchased frozen from Lonza. 10^6 CD34+ cells/ml were stimulated in serum-free StemSpan medium (StemCell Technologies) supplemented with penicillin, streptomycin and human early-acting cytokines (stem cell factor (SCF) 100 ng/ml, Flt3 ligand (Flt3-L) 100 ng/ml, thrombopoietin (TPO) 20 ng/ml, and interleukin 6 (IL-6) 20 ng/ml; all purchased from Peprotech) for 24 or 48 hr and then infected with IDLVs at multiplicity of infection (MOI) 100-500. The following day the cells were electroporated with 175 μg/ml ZFNs encoding mRNAs (P3 Primary Cell 4D-Nucleofector X Kit, program EO 100; Lonza). For some experiments, the following drugs were supplemented to the culture media: 1 μM SR1 (Novartis) added at every medium change, and 10 μM PGE2 (Cayman) added at the beginning of the culture, 1 hour before and just after electroporation. For CFC assays, 800 cells were plated one day after electroporation in methylcellulose-based medium (MethoCult H4434, StemCell Technologies). Two weeks after plating, colonies were counted and identified according to morphological criteria.
Because cell cycle progression is a major requirement of HDR, and activation of the more primitive progenitors may require longer stimulation, we postponed the gene targeting procedure to the third day of culture (FIG. 3C). At this time, the cells are also likely to become more permissive to LV transduction. However, since increasing times of culture lead to increased differentiation, we also tested addition of the Aryl Hydrocarbon Receptor Antagonist (StemRegenin 1, SR1) and/or 16.16 dimethyl-prostaglandin E2 (dmPGE2) to the culture medium to promote progenitor expansion in conditions that have been reported to preserve the stemness of these cells (FIG. 3D).

[2] = system: NSG mice; assay: Transplantation of gene targeted CD34+ cells in NSG mice, engraftment of human CD45+ and GFP+ cells; assay type: in vivo; conditions: for effect on in vivo differentiation of treated cells: addition to the in vitro culture, PB 14 weeks post-transplant; for fraction of mice successfully engrafted with GFP+ cells: delayed treatment and addition of SR1 and dmPGE2 used in combination
Description: For the in vivo studies, 8- to 11-week-old NOD-SCID-IL2Rg^−/− (NSG) mice were purchased from the Jackson laboratory. The experimental protocol was approved by the Institutional Animal Care and Use Committee of the San Raffaele Scientific Institute. At day 4 of culture, 3×10^5 gene targeted CD34+ cells (or 7.5×10^5 BM derived cells) were infused intravenously into the mice after sub-lethal irradiation (200 cGy).MDA3 human mammary carcinoma cell line was obtained by stable transduction of MDA-MB 231 cells with lentiviral vectors expressing the human cytokines GMCSF, IL-7 and IL-15 from the PGK promoter. 4×10^6MDA3 cells were implanted orthotopically in the mammary fat pad of NSG mice 14 weeks after CD34+ cells transplantation or in age-matched untransplanted NSG mice. Human CD45+ engraftment was followed by serial collections of blood from the mouse tail and, at the end of the experiment (12-23 weeks after transplantation), BM, spleen and thymus cells were harvested and analyzed. HumanT lymphocytes were enriched from mouse splenocytes using magnetic beads conjugated to anti human CD3 and CD28 antibodies (Dynabeads human T-activator CD3/CD28; Invitrogen), following the manufacturer instructions, and grown in Iscove's Modified Dulbecco's Media (IMDM) (GIBCO-BRL) supplemented with penicillin, streptomycin, 10% FBS and 5 ng/ml each of IL-7 and IL-15 (PeproTech).

[3] = 1 μM SR1 added to culture medium

| Compound | effect on overall yield of GFP+ CFC and early (CD133+) progenitors [1, 3] | effect on percentage of GFP+ cells within each subpopulation [1, 3] | effect on targeting efficiency ([1]; SR1 treatment) | effect on the more primitive fractions in culture ([1]; SR1 treatment) | effect on in vivo differentiation of treated cells [2] | total human cell engraftment in the mice ([2]; after SR1 addition to the culture) | fraction of mice successfully engrafted with GFP+ cells [2] [%] | apoptotic rate of cells treated with or without dmPGE2 [1] | effect on percentage of GFP+ cells in all subpopulations ([1]; dmPGE2 added to culture, additive effects with SR1) |
| --- | --- | --- | --- | --- | --- | --- | --- | --- | --- |
| CC(C)n1cnc2c(NCCc3ccc(O)cc3)nc(-c3csc4ccccc34)nc21 [SR1, StemRegenin 1] | increased | slightly reduced | did not significantly influence | helped maintain the more primitive fractions in culture | did not significantly affect | significantly increased | 100 |  |  |
| CCCCC(C)(C)[C@H](O)/C=C/[C@H]1[C@H](O)CC(=O)[C@@H]1C/C=C\CCCC(=O)O [dmPGE2, 16.16 dimethyl-prostaglandin E2] |  |  |  |  | did not significantly affect |  | 100 | did not observe significant differences | further increased |
